Assay [1] deals with uveal melanoma cell lines (OCM-1, OCM-3, 92-1 and mel 202). Description: Survival / cell death of the four uveal melanoma cell lines. The assay is classed as cell-based, human. The text has this:
Cell culture: Four cell lines obtained from human primary uveal melanomas (OCM-1, OCM-3, 92-1 and mel 202) are used.

The target of assay [2] is c-kit (Homo sapiens, UniProt P10721). As to conditions: treatment of uveal melanoma cell lines.
For assay [3], the system named is mel 202 cells. The assay is described as follows: XTT cell viability, uveal melanoma cell line mel 202. As to conditions: for percentages of living cells as compared to 100% survival of untreated cells: runs 1 and 2. For orientation: Formazan colour is commonly taken as a measure of viable cells.
Source text: (§1) The test is based on a colorimetric change of the yellow tetrazolium slat XTT into orange formazan dye by the respiratory chain of viable cells (Roehm et al., 1991, J. Immunol. Assay, 142:257-265).
The test system of assay [4] is DFB skin melanoma cell line. As to conditions: read-out: IC50 of Salt I on survival.
Source text: (§2) Cell proliferation kit II is purchased from Roche Diagnostic GmbH (Mannheim, Germany). The test is based on a colorimetric change of the yellow tetrazolium slat XTT into orange formazan dye by the respiratory chain of viable cells (Roehm et al., 1991, J. Immunol. Assay, 142:257-265).
Assay [5] has as its system skin melanoma cell lines.
Assay [6] has as its system BE skin melanoma cell line. As to conditions: read-out: IC50 of Salt I on survival.
Source text: as §2
Assay [7] deals with OCM-1 cells. The assay is described as follows: XTT cell viability, uveal melanoma cell line OCM-1. As to conditions: for percentages of living cells as compared to 100% survival of untreated cells: runs 1 and 2.
Source text: as §1
Assay [8] deals with OCM-3 cells. Description: XTT cell viability, uveal melanoma cell line OCM-3. As to conditions: for percentages of living cells as compared to 100% survival of untreated cells: runs 1 and 2.
Source text: as §1
Assay [9] deals with UM 92-1 cells. The conditions noted are these: runs 1 and 2.
Source text: as §1

Where “and” joins values, the source holds several entries; their conditions need not be identical. Identical values can stand only once. Like-named read-outs stand apart in the source and are kept apart here.

Chain of c-kit (P10721 26-976): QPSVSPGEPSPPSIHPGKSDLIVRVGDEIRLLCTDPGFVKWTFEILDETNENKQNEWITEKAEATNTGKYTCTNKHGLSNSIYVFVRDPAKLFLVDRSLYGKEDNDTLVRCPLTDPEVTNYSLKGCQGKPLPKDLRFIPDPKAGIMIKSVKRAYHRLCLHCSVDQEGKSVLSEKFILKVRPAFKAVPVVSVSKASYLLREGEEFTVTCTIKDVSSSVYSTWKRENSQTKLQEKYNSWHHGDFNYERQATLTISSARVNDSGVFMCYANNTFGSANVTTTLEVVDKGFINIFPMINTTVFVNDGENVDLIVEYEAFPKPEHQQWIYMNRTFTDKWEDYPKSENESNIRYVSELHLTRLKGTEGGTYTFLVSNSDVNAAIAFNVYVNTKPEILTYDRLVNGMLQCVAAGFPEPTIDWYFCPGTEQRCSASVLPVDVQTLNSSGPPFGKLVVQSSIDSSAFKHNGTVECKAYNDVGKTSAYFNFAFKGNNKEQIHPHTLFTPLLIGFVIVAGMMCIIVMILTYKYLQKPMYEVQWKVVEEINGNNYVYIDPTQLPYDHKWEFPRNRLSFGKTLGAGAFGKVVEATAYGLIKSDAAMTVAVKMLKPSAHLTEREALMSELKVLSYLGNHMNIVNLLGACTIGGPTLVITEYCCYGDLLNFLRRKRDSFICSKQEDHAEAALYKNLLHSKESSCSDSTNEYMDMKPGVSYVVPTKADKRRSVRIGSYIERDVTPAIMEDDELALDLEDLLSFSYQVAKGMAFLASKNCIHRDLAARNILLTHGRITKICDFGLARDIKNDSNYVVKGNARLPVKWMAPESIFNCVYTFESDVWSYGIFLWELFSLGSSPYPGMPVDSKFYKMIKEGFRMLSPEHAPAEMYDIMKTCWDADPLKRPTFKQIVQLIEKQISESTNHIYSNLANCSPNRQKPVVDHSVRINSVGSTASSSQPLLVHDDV

Take `Cc1ccc(NC(=O)c2ccc(CN3CCN(C)CC3)cc2)cc1Nc1nccc(-c2cccnc2)n1` [Compound I]: the “cell death in vitro” value in assay [1] (four uveal melanoma cell lines) is listed as “promotes in vitro cell death”. Further, in assay [2], the “effect on c-kit auto-phosphorylation” value was “blocks c-kit auto-phosphorylation”.

Usually IC50 stands for the point on the concentration scale where inhibition reaches its midpoint. On to `CS(=O)(=O)O.Cc1ccc(NC(=O)c2ccc(CN3CCN(C)CC3)cc2)cc1Nc1nccc(-c2cccnc2)n1` [Salt I], for which the “percentages of living cells as compared to 100% survival of untreated cells” value was 98% and 105% in assay [3] (mel 202, 24 h, 0.3 μM Salt I); 92% and 104% in assay [3] (mel 202, 24 h, 0.6 μM Salt I); 97% and 101% in assay [3] (mel 202, 24 h, 5 μM Salt I); 78% and 87% in assay [3] (mel 202, 24 h, 10 μM Salt I); 23% and 14% in [3] (mel 202, 48 h, 0.3 μM Salt I); 19% and 17% in assay [3] (mel 202, 48 h, 0.6 μM Salt I). Further, the “percentages of living cells as compared to 100% survival of untreated cells” value in assay [3] (mel 202, 48 h, 5 μM Salt I) is 23% and 15%; in [7] (OCM-1, 24 h, 0.3 μM Salt I), 95% and 97%; in [7] (OCM-1, 24 h, 0.6 μM Salt I) it was 87% and 82%; in assay [7] (OCM-1, 24 h, 5 μM Salt I), 63%; in [7] (OCM-1, 24 h, 10 μM Salt I) it was 50% and 52%; in assay [7] (OCM-1, 48 h, 0.3 μM Salt I), 62% and 59%. In addition, the “percentages of living cells as compared to 100% survival of untreated cells” value was 40% and 37% in assay [7] (OCM-1, 48 h, 0.6 μM Salt I); 27% and 23% in [7] (OCM-1, 48 h, 5 μM Salt I); 23% and 29% in assay [7] (OCM-1, 48 h, 10 μM Salt I); 100% and 97% in assay [8] (OCM-3, 24 h, 0.3 μM Salt I); 100% and 105% in assay [8] (OCM-3, 24 h, 0.6 μM Salt I); 85% and 83% in assay [8] (OCM-3, 24 h, 5 μM Salt I). Also, the “percentages of living cells as compared to 100% survival of untreated cells” value was 87% and 98% in [8] (OCM-3, 24 h, 10 μM Salt I); 43% and 39% in assay [8] (OCM-3, 48 h, 0.3 μM Salt I); 34% and 27% in assay [8] (OCM-3, 48 h, 0.6 μM Salt I); 98% and 91% in assay [9] (UM 92-1, 24 h, 0.3 μM Salt I); 95% in assay [9] (UM 92-1, 24 h, 0.6 μM Salt I); 83% and 75% in [9] (UM 92-1, 24 h, 5 μM Salt I). The “percentages of living cells as compared to 100% survival of untreated cells” value in [9] (UM 92-1, 24 h, 10 μM Salt I) is 70% and 83%; in assay [9] (UM 92-1, 48 h, 0.3 μM Salt I), 85% and 90%; in assay [9] (UM 92-1, 48 h, 0.6 μM Salt I), 79% and 71%; in assay [9] (UM 92-1, 48 h, 5 μM Salt I), 15% and 22%; in assay [9] (UM 92-1, 48 h, 10 μM Salt I), 0% and 5%. In addition, the half-inhibitory concentration (IC50) was 70 nM in assay [3] (read-out: IC50 of Salt I on survival, uveal melanoma cell line mel 202, Example 1: 48 hours exposure); > 20000 nM in assay [4]; > 20000 nM in assay [6]; 400 nM in assay [7] (read-out: IC50 of Salt I on survival, uveal melanoma cell line OCM-1, Example 1: 48 hours exposure); 150 nM in assay [8] (read-out: IC50 of Salt I on survival, uveal melanoma cell line OCM-3, Example 1: 48 hours exposure). The cell loss entry in [1] (uveal melanoma cell lines, even at low concentrations of Salt I) is given as “drastic cell loss”. Moreover, in assay [5], the “Salt I responsiveness” value is on record as “no respondent”.
